Test results reported in PubChem BioAssay (NCI).
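Grown in 96-well plates, cells were treated for 48 hours with each compound at five concentrations. Insufficient inhibition: endpoint recorded as highest concentration tested. At the GI50, growth is halved. TGI: concentration producing complete growth inhibition.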

Experiments:
Test in all cases: NCI-60 cell line screen, 48 h
EKVX NSCLC = system: EKVX NSCLC
LXFL 529 NSCLC = system: LXFL 529 NSCLC
OVCAR-3 ovarian = system: OVCAR-3 ovarian
OVCAR-8 ovarian = system: OVCAR-8 ovarian
A498 renal = system: A498 renal
SF-268 CNS = system: SF-268 CNS
SK-MEL-2 melanoma = system: SK-MEL-2 melanoma
KM12 colon = system: KM12 colon
MOLT-4 leukemia = system: MOLT-4 leukemia
SNB-19 CNS = system: SNB-19 CNS
HCT-116 colon = system: HCT-116 colon
NCI-H23 lung = system: NCI-H23 lung
SN12C renal = system: SN12C renal
M14 melanoma = system: M14 melanoma
NCI-H460 lung = system: NCI-H460 lung
A549 NSCLC = system: A549 NSCLC
DMS 273 small cell lung = system: DMS 273 small cell lung
CCRF-CEM leukemia = system: CCRF-CEM leukemia
M19-MEL melanoma = system: M19-MEL melanoma
DLD-1 colon = system: DLD-1 colon
COLO 205 colon = system: COLO 205 colon
IGROV1 ovarian = system: IGROV1 ovarian
HOP-62 NSCLC = system: HOP-62 NSCLC
OVCAR-5 ovarian = system: OVCAR-5 ovarian
SNB-75 CNS = system: SNB-75 CNS
SR leukemia = system: SR leukemia
NCI-H522 lung = system: NCI-H522 lung
SK-OV-3 ovarian = system: SK-OV-3 ovarian
HL-60(TB) leukemia = system: HL-60(TB) leukemia
OVCAR-4 ovarian = system: OVCAR-4 ovarian
CAKI-1 renal = system: CAKI-1 renal
HOP-92 NSCLC = system: HOP-92 NSCLC
XF 498 CNS = system: XF 498 CNS
SW-620 colon = system: SW-620 colon
U251 CNS = system: U251 CNS
SF-539 CNS = system: SF-539 CNS
SNB-78 CNS = system: SNB-78 CNS
UO-31 renal = system: UO-31 renal
TK-10 renal = system: TK-10 renal
NCI-H226 lung = system: NCI-H226 lung
UACC-62 melanoma = system: UACC-62 melanoma
SK-MEL-5 melanoma = system: SK-MEL-5 melanoma
HT29 colon = system: HT29 colon
RXF 393 renal = system: RXF 393 renal
SK-MEL-28 melanoma = system: SK-MEL-28 melanoma
SF-295 CNS = system: SF-295 CNS
UACC-257 melanoma = system: UACC-257 melanoma
RPMI-8226 leukemia = system: RPMI-8226 leukemia
KM20L2 colon = system: KM20L2 colon
HCT-15 colon = system: HCT-15 colon
HOP-18 NSCLC = system: HOP-18 NSCLC
ACHN renal = system: ACHN renal
HCC-2998 colon = system: HCC-2998 colon
MALME-3M melanoma = system: MALME-3M melanoma
LOX IMVI melanoma = system: LOX IMVI melanoma
K-562 leukemia = system: K-562 leukemia
RXF-631 renal = system: RXF-631 renal
786-0 renal = system: 786-0 renal

CC(=O)OC1C(=O)C(O)C(C)OC1O[C@@H]1C[C@@]2(C)[C@@H]3CC=C4[C@@H](C[C@H](O)C(=O)C4(C)C)[C@]3(C)C(=O)C[C@]2(C)[C@H]1[C@@](C)(O)C(=O)/C=C/C(C)(C)O (stereo partly drawn)
TGI (EKVX NSCLC): > 7.55 µM | TGI (LXFL 529 NSCLC): > 10 µM | TGI (OVCAR-3 ovarian): 7.05 µM | TGI (OVCAR-8 ovarian): > 10 µM | TGI (A498 renal): 1.04 µM | TGI (SF-268 CNS): 4.01 µM | GI50 (SK-MEL-2 melanoma): 0.055 µM | TGI (KM12 colon): > 10 µM | TGI (MOLT-4 leukemia): > 10 µM | TGI (SNB-19 CNS): 4.56 µM | TGI (HCT-116 colon): > 10 µM | TGI (NCI-H23 lung): > 10 µM | TGI (SN12C renal): > 10 µM | TGI (M14 melanoma): > 10 µM | TGI (NCI-H460 lung): > 10 µM | TGI (A549 NSCLC): > 10 µM | GI50 (DMS 273 small cell lung): 0.0452 µM | TGI (CCRF-CEM leukemia): > 7.21 µM | TGI (M19-MEL melanoma): > 10 µM | TGI (DLD-1 colon): > 10 µM | TGI (COLO 205 colon): > 6.77 µM | TGI (IGROV1 ovarian): 4.62 µM | TGI (HOP-62 NSCLC): 5.42 µM | TGI (OVCAR-5 ovarian): > 10 µM | TGI (SNB-75 CNS): 1.47 µM | TGI (SR leukemia): > 10 µM | TGI (NCI-H522 lung): 6.12 µM | TGI (SK-OV-3 ovarian): > 9.33 µM | TGI (HL-60(TB) leukemia): 7.1 µM | TGI (OVCAR-4 ovarian): 5.51 µM | TGI (CAKI-1 renal): 2.98 µM | TGI (HOP-92 NSCLC): 2.52 µM | TGI (XF 498 CNS): 0.64 µM | TGI (SW-620 colon): 9.85 µM | TGI (U251 CNS): 5.41 µM | TGI (SF-539 CNS): 1.97 µM | GI50 (SNB-78 CNS): 0.0626 µM | TGI (UO-31 renal): 4.95 µM | TGI (TK-10 renal): 3.44 µM | TGI (NCI-H226 lung): 2 µM | TGI (UACC-62 melanoma): > 7.98 µM | TGI (SK-MEL-5 melanoma): 8.4 µM | TGI (HT29 colon): > 10 µM | TGI (RXF 393 renal): 1.43 µM | TGI (SK-MEL-28 melanoma): 0.803 µM | TGI (SF-295 CNS): 7.19 µM | TGI (UACC-257 melanoma): 7.05 µM | TGI (RPMI-8226 leukemia): 8.04 µM | TGI (KM20L2 colon): 8.3 µM | TGI (HCT-15 colon): > 9.45 µM | TGI (HOP-18 NSCLC): 4.9 µM | TGI (ACHN renal): 7.38 µM | TGI (HCC-2998 colon): 8.32 µM | TGI (MALME-3M melanoma): 9.83 µM | TGI (LOX IMVI melanoma): 2.76 µM | TGI (K-562 leukemia): > 10 µM | TGI (RXF-631 renal): 7.85 µM | TGI (786-0 renal): 4.64 µM
